Experimental data reported in ChEMBL document CHEMBL4665699, “Cytotoxic Diterpenoids from Caryopteris aureoglandulosa” (J Nat Prod, 2020).

Columns and labels:
Type in all cases: functional, cell-based
[1] = tested on: NCI-H460; assay: Cytotoxicity against human NCI-H460 cells assessed as reduction in cell viability after 48 hrs by CCK8 assay; conditions: NCI-H460, 48 h
[2] = tested on: A549; assay: Cytotoxicity against human A549 cells assessed as reduction in cell viability after 48 hrs by CCK8 assay; conditions: A549, 48 h
[3] = Cytotoxicity against human 95-D cells assessed as reduction in cell viability after 48 hrs by CCK8 assay
[4] = tested on: NCI-H1650; assay: Cytotoxicity against human NCI-H1650 cells assessed as reduction in cell viability after 48 hrs by CCK8 assay; conditions: NCI-H1650, 48 h
[5] = tested on: PC-9; assay: Cytotoxicity against human PC-9 cells assessed as reduction in cell viability after 48 hrs by CCK8 assay; conditions: PC-9, 48 h

Compound	IC50 [1]	IC50 [2]	IC50 [3]	IC50 [4]	IC50 [5]
O=c1[nH]cc(F)c(=O)[nH]1 [FLUOROURACIL]	9.9 µM	> 10 µM	> 10 µM	> 10 µM	> 10 µM
C[C@@]12CC[C@@H](OC1=O)c1c2cc(O)c2c1C(=O)c1oc(CO)cc1C2=O	> 10 µM	4.8 µM	3.9 µM	1.6 µM	> 10 µM
Cc1cc2c(o1)C(=O)c1cc3c(c(O)c1C2=O)C(=O)CCCC3(C)C	> 10 µM	10.4 µM	> 10 µM	5.4 µM	8.2 µM
